Reference: patent US9938261B2, “Heterocyclic compounds and methods of use thereof” (AMBIT BIOSCIENCES CORPORATION, priority 2011, dated 2018)

Legend:
CSF1R [1] = molecular target: T1, CSF1R (Homo sapiens, UniProt P07333); assay: HEK293 CSF1R phosphorylation MSD assay; format: cell-based; parameters: expressed in transfected cells; host or cells: HEK293; details: HEK293 cells, M-CSF stimulated CSF1R phosphorylation, MSD; read-out: HEK293 pCSF1R M-CSF MSD:IC50
Summary of the method: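 HEK293 cells expressing CSF1R-FKBP were pretreated 2 h at 37° C with 9 half-log concentrations of compound (0.5% DMSO final), then stimulated 5 min with 50 ng/mL human M-CSF. Lysates captured on biotin-FK506 plates; phosphotyrosine detected by MSD electrochemiluminescence. IC50 versus DMSO, averaged from duplicate plates.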

PDGFRβ = molecular target: T2, PDGFRβ (Homo sapiens, UniProt P09619); assay: Competition binding assay, PDGFRβ Kd; details: competition binding
T2 construct: made in house
T2 sequence (P09619 33-1106): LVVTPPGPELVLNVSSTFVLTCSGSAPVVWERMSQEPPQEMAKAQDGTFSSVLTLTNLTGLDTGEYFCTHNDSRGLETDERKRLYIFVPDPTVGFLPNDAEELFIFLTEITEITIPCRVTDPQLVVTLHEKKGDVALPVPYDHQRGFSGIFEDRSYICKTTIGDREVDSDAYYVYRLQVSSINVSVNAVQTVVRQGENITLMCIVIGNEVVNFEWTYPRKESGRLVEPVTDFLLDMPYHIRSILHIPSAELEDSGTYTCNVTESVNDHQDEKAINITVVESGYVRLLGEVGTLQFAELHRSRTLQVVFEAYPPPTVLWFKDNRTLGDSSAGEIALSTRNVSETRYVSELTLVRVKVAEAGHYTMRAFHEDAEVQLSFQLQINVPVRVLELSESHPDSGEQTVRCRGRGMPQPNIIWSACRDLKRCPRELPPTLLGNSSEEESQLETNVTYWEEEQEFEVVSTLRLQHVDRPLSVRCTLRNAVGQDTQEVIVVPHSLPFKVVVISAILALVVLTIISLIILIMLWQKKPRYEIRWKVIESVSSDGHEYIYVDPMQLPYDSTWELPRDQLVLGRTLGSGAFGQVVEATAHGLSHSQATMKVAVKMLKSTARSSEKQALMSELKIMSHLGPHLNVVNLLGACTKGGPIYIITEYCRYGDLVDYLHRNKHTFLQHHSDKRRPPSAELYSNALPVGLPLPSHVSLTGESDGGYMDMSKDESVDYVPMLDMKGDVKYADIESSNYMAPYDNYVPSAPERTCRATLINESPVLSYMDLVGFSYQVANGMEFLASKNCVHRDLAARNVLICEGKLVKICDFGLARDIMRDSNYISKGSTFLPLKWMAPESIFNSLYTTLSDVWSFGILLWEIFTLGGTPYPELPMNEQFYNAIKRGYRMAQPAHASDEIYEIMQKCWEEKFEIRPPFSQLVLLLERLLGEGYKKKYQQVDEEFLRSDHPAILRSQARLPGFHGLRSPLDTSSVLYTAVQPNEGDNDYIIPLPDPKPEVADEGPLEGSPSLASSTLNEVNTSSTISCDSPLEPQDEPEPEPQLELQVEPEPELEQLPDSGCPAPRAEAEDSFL
Summary of the method: (§1)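 First, biotinylated affinity ligands were loaded onto streptavidin magnetic beads and blocked. Kinase, beads and compound were then equilibrated 1 hour at room temperature, washed, and eluted with non-biotinylated ligand. Eluted kinase was measured by qPCR, with Kd fitted from an eleven-point threefold dilution series.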

CSF1R [2] = molecular target: T1, CSF1R; assay: Competition binding assay, CSF1R Kd; parameters: made in house; details: competition binding
Summary of the method: as §1

[3] = molecular target: kinase panel containing either 386 or 392 distinct kinases; assay: Kinase selectivity score S10 from competition binding panel; details: 10 μM, panel of 386 or 392 distinct kinases
Summary of the method: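 Compounds at 10 μM competed against immobilised affinity ligands for T7 phage-fused or HEK-293-expressed DNA-tagged kinases, 1 h at room temperature; bound kinase eluted and quantified by qPCR. S10 = fraction of distinct non-mutant kinases with percent of DMSO control below 10.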

KIT = molecular target: T3, KIT (Homo sapiens, UniProt P10721); assay: Competition binding assay, KIT Kd; details: competition binding
T3 construct: made in house
T3 sequence (P10721 26-976): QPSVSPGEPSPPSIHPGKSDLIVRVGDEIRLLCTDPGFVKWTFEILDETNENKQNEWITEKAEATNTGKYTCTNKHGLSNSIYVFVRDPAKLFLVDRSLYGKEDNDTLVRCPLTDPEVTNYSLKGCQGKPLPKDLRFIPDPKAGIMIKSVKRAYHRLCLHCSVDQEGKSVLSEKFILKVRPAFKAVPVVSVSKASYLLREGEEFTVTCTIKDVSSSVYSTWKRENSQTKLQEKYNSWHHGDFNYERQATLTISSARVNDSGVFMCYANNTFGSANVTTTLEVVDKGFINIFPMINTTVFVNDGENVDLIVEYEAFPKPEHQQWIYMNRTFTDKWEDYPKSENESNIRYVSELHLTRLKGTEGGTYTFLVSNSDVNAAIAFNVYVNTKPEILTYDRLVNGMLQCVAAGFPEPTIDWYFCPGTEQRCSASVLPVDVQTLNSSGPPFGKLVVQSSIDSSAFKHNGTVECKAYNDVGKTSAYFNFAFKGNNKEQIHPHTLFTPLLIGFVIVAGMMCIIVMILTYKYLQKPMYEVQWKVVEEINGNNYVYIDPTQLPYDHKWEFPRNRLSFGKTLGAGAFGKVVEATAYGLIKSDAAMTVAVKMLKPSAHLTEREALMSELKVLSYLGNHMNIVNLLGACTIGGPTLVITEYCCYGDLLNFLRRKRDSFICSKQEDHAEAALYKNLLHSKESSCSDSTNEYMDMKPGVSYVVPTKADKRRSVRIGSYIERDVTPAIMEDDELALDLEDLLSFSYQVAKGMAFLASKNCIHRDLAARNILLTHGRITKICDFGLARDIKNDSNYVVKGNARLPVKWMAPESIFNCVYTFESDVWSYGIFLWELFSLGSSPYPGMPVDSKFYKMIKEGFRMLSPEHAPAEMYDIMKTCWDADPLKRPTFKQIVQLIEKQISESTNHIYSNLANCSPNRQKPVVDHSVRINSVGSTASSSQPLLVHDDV
Summary of the method: as §1

T1 sequence (P07333 20-972): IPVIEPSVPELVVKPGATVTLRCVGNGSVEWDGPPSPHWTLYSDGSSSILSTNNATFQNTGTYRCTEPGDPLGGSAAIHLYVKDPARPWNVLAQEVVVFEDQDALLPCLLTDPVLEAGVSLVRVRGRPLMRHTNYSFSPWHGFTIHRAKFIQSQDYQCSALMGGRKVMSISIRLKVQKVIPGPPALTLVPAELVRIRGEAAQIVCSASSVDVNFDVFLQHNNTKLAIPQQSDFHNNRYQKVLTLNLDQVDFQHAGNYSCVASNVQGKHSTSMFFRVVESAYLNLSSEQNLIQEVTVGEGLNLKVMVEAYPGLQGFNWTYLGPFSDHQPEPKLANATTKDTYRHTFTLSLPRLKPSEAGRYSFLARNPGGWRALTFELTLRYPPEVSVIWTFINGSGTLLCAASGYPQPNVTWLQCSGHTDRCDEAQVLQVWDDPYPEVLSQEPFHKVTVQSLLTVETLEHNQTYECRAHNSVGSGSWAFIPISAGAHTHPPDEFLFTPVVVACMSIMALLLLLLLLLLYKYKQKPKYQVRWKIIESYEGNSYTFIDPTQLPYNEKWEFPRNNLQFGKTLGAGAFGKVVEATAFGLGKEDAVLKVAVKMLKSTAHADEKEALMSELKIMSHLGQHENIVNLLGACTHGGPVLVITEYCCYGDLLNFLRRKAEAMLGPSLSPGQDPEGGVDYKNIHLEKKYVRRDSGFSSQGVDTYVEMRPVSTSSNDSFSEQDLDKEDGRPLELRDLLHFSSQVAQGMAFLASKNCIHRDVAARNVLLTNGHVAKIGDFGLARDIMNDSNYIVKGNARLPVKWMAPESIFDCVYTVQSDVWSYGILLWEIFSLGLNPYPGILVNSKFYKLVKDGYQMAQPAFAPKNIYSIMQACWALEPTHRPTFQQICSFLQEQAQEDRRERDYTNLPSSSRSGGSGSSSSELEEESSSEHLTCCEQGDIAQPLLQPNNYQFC

| SMILES | IC50 (CSF1R [1]) [nM] | Kd (PDGFRβ) [nM] | Kd (CSF1R [2]) [nM] | Kinase specificity S(10) [3] | Kd (KIT) [nM] |
| --- | --- | --- | --- | --- | --- |
| O[C@@H]1CCCC[C@H]1Nc1nc2ccc(Cc3cnc4cnccn34)cc2s1 [Example 125, (1R,2R)-2-((6-(imidazo[1,2-a]pyrazin-3-ylmethyl)benzo[d]thiazol-2-yl)amino)cyclohexanol] | 50 to 200 | 50 to 500 | 5 to 20 | B (0.01<B≤0.02) | 500 to 2000 |
| C#Cc1ccc2c(c1)ncn2Cc1ccc2nc(N[C@@H]3CCCC[C@H]3O)sc2c1 [Example 121, (1R,2R)-2-((6-((5-ethynyl-1H-benzo[d]imidazol-1-yl)methyl)benzo[d]thiazol-2-yl)amino)cyclohexanol] | 50 to 200 | 50 to 500 | 5 to 20 | A (A≤0.01) | 100 to 500 |
| OC[C@H]1CCCC[C@H]1Nc1nc2ccc(Cn3cnc4cc(Br)cnc43)cc2s1 [Example 136, ((1S,2R)-2-((6-((6-bromo-3H-imidazo[4,5-b]pyridin-3-yl)methyl)benzo[d]thiazol-2-yl)amino)cyclohexyl)methanol] | 50 to 200 | ≤ 50 | 5 to 20 | B (0.01<B≤0.02) | ≤ 100 |
| O[C@@H]1CCCC[C@H]1Nc1nc2ccc(Cc3cnc4cccnn34)cc2o1 [Example 142, (1R,2R)-2-((6-(imidazo[1,2-b]pyridazin-3-ylmethyl)benzo[d]oxazol-2-yl)amino)cyclohexanol] | ≤ 50 | ≤ 50 | ≤ 5 | C (C>0.02) | ≤ 100 |
| O[C@@H]1CCCC[C@H]1Nc1nc2ccc(Cn3cnc4cc(-n5ccnc5)ccc43)cc2s1 [Example 226, (1R,2R)-2-((6-((5-(1H-imidazol-1-yl)-1H-benzo[d]imidazol-1-yl)methyl)benzo[d]thiazol-2-yl)amino)cyclohexanol] | ≤ 50 | ≤ 50 | ≤ 5 | B (0.01<B≤0.02) | ≤ 100 |
| N#Cc1cc2ncn(Cc3ccc4nc(N[C@@H]5CCCC[C@H]5O)sc4c3)c2nc1C#N [Example 139, 3-((2-(((1R,2R)-2-hydroxycyclohexyl)amino)benzo[d]thiazol-6-yl)methyl)-3H-imidazo[4,5-b]pyridine-5,6-dicarbonitrile] | 200 to 500 | 50 to 500 | 20 to 50 | A (A≤0.01) | 100 to 500 |
| O[C@@H]1CCCC[C@H]1Nc1nc2ccc(Cc3cnc4ccc(N5CCOCC5)nn34)cc2s1 [Example 155, (1R,2R)-2-((6-((6-morpholinoimidazo[1,2-b]pyridazin-3-yl)methyl)benzo[d]thiazol-2-yl)amino)cyclohexanol] | ≤ 50 | 50 to 500 | ≤ 5 | B (0.01<B≤0.02) | ≤ 100 |
| Cc1ccc2c(c1)ncn2Cc1ccc2nc(N[C@@H]3CCCC[C@H]3O)sc2c1 [Example 127, (1R,2R)-2-((6-((5-methyl-1H-benzo[d]imidazol-1-yl)methyl)benzo[d]thiazol-2-yl)amino)cyclohexanol] | 50 to 200 | ≤ 50 | 5 to 20 | A (A≤0.01) | 100 to 500 |
| O[C@@H]1CCCC[C@H]1Nc1nc2ccc(Cc3cnc4cccnn34)cc2s1 [Example 131, (1R,2R)-2-((6-(imidazo[1,2-b]pyridazin-3-ylmethyl)benzo[d]thiazol-2-yl)amino)cyclohexanol] | ≤ 50 | ≤ 50 | ≤ 5 | B (0.01<B≤0.02) | ≤ 100 |
| CC(O)c1cnc2c(c1)ncn2Cc1ccc2nc(N[C@@H]3CCCC[C@H]3O)sc2c1 (stereo partly drawn) [Example 115, (1R,2R)-2-((6-((6-((R,S)-1-hydroxyethyl)-3H-imidazo[4,5-b]pyridin-3-yl)methyl)benzo[d]thiazol-2-yl)amino)cyclohexanol] | 50 to 200 | 50 to 500 | > 50 | A (A≤0.01) | 500 to 2000 |
| COc1ccc2ncc(Cc3ccc4nc(N[C@@H]5CCCC[C@H]5O)sc4c3)n2c1 [Example 165, (1R,2R)-2-((6-((6-methoxyimidazo[1,2-a]pyridin-3-yl)methyl)benzo[d]thiazol-2-yl)amino)cyclohexanol] | > 500 | 500 to 2000 | 5 to 20 | A (A≤0.01) | 500 to 2000 |
| O[C@@H]1CCCC[C@H]1Nc1nc2ccc(Cn3cnc4cc(-n5cccn5)cnc43)cc2s1 [Example 141, (1R,2R)-2-((6-((6-(1H-pyrazol-1-yl)-3H-imidazo[4,5-b]pyridine-3-yl)methyl)benzo[d]thiazol-2-yl)amino)cyclohexanol] | ≤ 50 | ≤ 50 | ≤ 5 | B (0.01<B≤0.02) | ≤ 100 |
| CC(=O)c1ccc2ncn(Cc3ccc4nc(N[C@@H]5CCCC[C@H]5O)sc4c3)c2c1 [Example 120, 1-(1-((2-(((1R,2R)-2-hydroxycyclohexyl)amino)benzo[d]thiazol-6-yl)methyl)-1H-benzo[d]imidazol-6-yl)ethanone] | 50 to 200 | 50 to 500 | 5 to 20 | B (0.01<B≤0.02) | 100 to 500 |
| C#Cc1ccc2ncn(Cc3ccc4nc(N[C@@H]5CCCC[C@H]5O)sc4c3)c2c1 [Example 122, (1R,2R)-2-((6-((6-ethynyl-1H-benzo[d]imidazol-1-yl)methyl)benzo[d]thiazol-2-yl)amino)cyclohexanol] | 50 to 200 | 50 to 500 | 5 to 20 | A (A≤0.01) | 100 to 500 |
| O[C@@H]1CCCC[C@H]1Nc1nc2ccc(Cn3cnc4cc(F)ccc43)cc2s1 [Example 129, (1R,2R)-2-((6-((5-fluoro-1H-benzo[d]imidazol-1-yl)methyl)benzo[d]thiazol-2-yl)amino)cyclohexanol] | ≤ 50 | ≤ 50 | ≤ 5 | B (0.01<B≤0.02) | ≤ 100 |
| O[C@@H]1CCCC[C@H]1Nc1nc2ccc(Cn3cnc4cc(C(F)(F)F)ccc43)cc2s1 [Example 130, (1R,2R)-2-((6-((5-(trifluoromethyl)-1H-benzo[d]imidazol-1-yl)methyl)benzo[d]thiazol-2-yl)amino)cyclohexanol] | 200 to 500 | ≤ 50 | 5 to 20 | A (A≤0.01) | 100 to 500 |
| O[C@@H]1CCCC[C@H]1Nc1nc2ccc(Cc3cnc4ccc(-n5cccn5)cn34)cc2s1 [Example 159, (1R,2R)-2-((6-((6-(1H-pyrazol-1-yl)imidazo[1,2-a]pyridin-3-yl)methyl)benzo[d]thiazol-2-yl)amino)cyclohexanol] | 200 to 500 | 500 to 2000 | 5 to 20 | A (A≤0.01) | 500 to 2000 |
| Oc1ccc2c(c1)ncn2Cc1ccc2nc(N[C@@H]3CCCC[C@H]3O)sc2c1 [Example 147, 1-((2-(((1R,2R)-2-hydroxycyclohexyl)amino)benzo[d]thiazol-6-yl)methyl)-1H-benzo[d]imidazol-5-ol] | ≤ 50 | ≤ 50 | ≤ 5 | A (A≤0.01) | ≤ 100 |
| CNC(=O)c1ccc2c(c1)ncn2Cc1ccc2nc(N[C@@H]3CCCC[C@H]3O)sc2c1 [Example 173, 1-((2-(((1R,2R)-2-hydroxycyclohexyl)amino)benzo[d]thiazol-6-yl)methyl)-N-methyl-1H-benzo[d]imidazole-5-carboxamide] | 50 to 200 | 50 to 500 | 5 to 20 | B (0.01<B≤0.02) | 100 to 500 |
| O[C@@H]1CCCC[C@H]1Nc1nc2c(Br)cc(Cn3cnc4cccnc43)cc2s1 [Example 166, (1R,2R)-2-((6-((3H-imidazo[4,5-b]pyridin-3-yl)methyl)-4-bromobenzo[d]thiazol-2-yl)amino)cyclohexanol] | > 500 | > 2000 | 5 to 20 | A (A≤0.01) | 500 to 2000 |
| O[C@H]1CC[C@H](Nc2nc3ccc(Cn4cnc5cc(F)cnc54)cc3s2)CC1 [Example 163, trans-4-((6-((6-fluoro-3H-imidazo[4,5-b]pyridin-3-yl)methyl)benzo[d]thiazol-2-yl)amino)cyclohexanol] | > 500 | 50 to 500 | > 50 | A (A≤0.01) | 100 to 500 |
| O[C@@H]1CCCC[C@H]1Nc1nc2ccc(Cc3cnc4cc(-n5cncn5)ccn34)cc2s1 [Example 169, (1R,2R)-2-((6-((7-(1H-1,2,4-triazol-1-yl)imidazo[1,2-a]pyridin-3-yl)methyl)benzo[d]thiazol-2-yl)amino)cyclohexanol] | 50 to 200 | 50 to 500 | 5 to 20 | A (A≤0.01) | 500 to 2000 |
